Results on 5 molecules are retold here after PubChem BioAssay AID2060329 (Molecular Pharmacology Branch, DTP, NCI, 2025).

“And” between values parts separate entries of the source, which are not always exact repeats. Equal entries are not always repeated. A value given as a limit tells only on which side of the number the result lay.

The test has as its system MCF7 multi-cell spheroids with HUVEC/MSC, viability. As to the kind of experiment: Anticancer human tumor MCF7 cell line growth inhibition [IpAb].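 On all read-outs here: spheroids exposed to agents for seven days before readout.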 The note with it: for viability, T/C: stronger effect = lower value. In outline:
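Combinations with ipatasertib or abemaciclib were tested on tumour spheroids holding HUVEC (25%) and MSC (15%) alongside 60% malignant cells. Top concentration was at or near clinical Cmax (10 microM if undefined), descending in half-log steps.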

Setting [1] is: curve of first compound, second compound 0.01 µM.
Where [2] appears, read: curve of first compound, second compound 0.0316 µM.
The mark [3] stands for this setting: curve of first compound, second compound 0.1 µM.
Where [4] appears, read: curve of first compound, second compound 0.316 µM.
Where [5] appears, read: curve of first compound, second compound 1 µM.
Setting [6] is: second compound 0.01 µM, first compound 0.0316 µM.
Where [7] appears, read: second compound 0.01 µM, first compound 0.1 µM.
The mark [8] stands for this setting: second compound 0.0316 µM, first compound 0.0316 µM.
[9] abbreviates: second compound 0.0316 µM, first compound 0.1 µM.
Setting [10] is: second compound 0.1 µM, first compound 0.0316 µM.
[11] abbreviates: second compound 0.1 µM, first compound 0.1 µM.
Setting [12] is: second compound 0.1 µM, first compound 0.316 µM.
[13] abbreviates: second compound 0.1 µM, first compound 1 µM.
Where [14] appears, read: second compound 0.316 µM, first compound 0.0316 µM.
Where [15] appears, read: second compound 0.316 µM, first compound 0.1 µM.
Where [16] appears, read: second compound 0.316 µM, first compound 0.316 µM.
[17] abbreviates: second compound 0.316 µM, first compound 1 µM.
[18] abbreviates: second compound 1 µM, first compound 0.0316 µM.
Setting [19] is: second compound 1 µM, first compound 0.1 µM.
Where [20] appears, read: second compound 1 µM, first compound 0.316 µM.
The mark [21] stands for this setting: second compound 1 µM, first compound 1 µM.
[22] abbreviates: second compound 0.1 µM, first compound 0.00316 µM.
The mark [23] stands for this setting: second compound 0.1 µM, first compound 0.01 µM.
[24] abbreviates: second compound 0.316 µM, first compound 0.00316 µM.
Where [25] appears, read: second compound 0.316 µM, first compound 0.01 µM.
The mark [26] stands for this setting: second compound 1 µM, first compound 0.00316 µM.
Setting [27] is: second compound 1 µM, first compound 0.01 µM.

What is called viability, T/C is the ratio of treated to control. For orientation: IC50 means the concentration needed to halve the response being measured. Take `CCCS(=O)(=O)Nc1ccc(F)c(C(=O)c2c[nH]c3ncc(-c4ccc(Cl)cc4)cc23)c1F`: the viability, T/C runs as follows: (compound 0.0316 µM) 102% and 98.6%; (compound 0.1 µM) 106% and 100%; (compound 0.316 µM) 102% and 96.2%; (compound 1 µM) 104% and 97%; (compound 3.16 µM) 99.4% and 93.1%; (compound 10 µM) 105% and 97.9%. The IC50 (curve of compound) is above 10000 nM.
For the molecule `Cn1ncc(Cl)c1-c1cc(C(=O)NC(CN)Cc2cccc(F)c2)sc1Cl` (centres undefined) + CCN1CCN(Cc2ccc(Nc3ncc(F)c(-c4cc(F)c5nc(C)n(C(C)C)c5c4)n3)nc2)CC1, the IC50 by setting is: under setting [1], 847 nM; under setting [2], 758 nM; under setting [3], 838 nM; under setting [4], 1320 nM; under setting [5], 715 nM. Besides, the viability, T/C by setting is: under setting [6], 93%; under setting [7], 85.9%; (second compound 0.01 µM, first compound 0.316 µM) 65.2%; (second compound 0.01 µM, first compound 1 µM) 53.2%; (second compound 0.01 µM, first compound 3.16 µM) 15%; (second compound 0.01 µM, first compound 10 µM) 0.18%. In addition, the viability, T/C under setting [8] is 91.9%; the viability, T/C under setting [9] was 89.6%; the viability, T/C (second compound 0.0316 µM, first compound 0.316 µM) is 70.7%; the viability, T/C (second compound 0.0316 µM, first compound 1 µM) was 46.8%; the viability, T/C (second compound 0.0316 µM, first compound 3.16 µM) was 4.25%; the viability, T/C (second compound 0.0316 µM, first compound 10 µM) was 0.13%. Moreover, the viability, T/C is, setting by setting: under setting [10], 94.7%; under setting [11], 86.3%; under setting [12], 69%; under setting [13], 53.1%; (second compound 0.1 µM, first compound 3.16 µM) 5.55%; (second compound 0.1 µM, first compound 10 µM) 0.15%. For the same molecule, the viability, T/C is 95.7% under setting [14]; 88.4% under setting [15]; 78.8% under setting [16]; 64.5% under setting [17]; 7.44% (second compound 0.316 µM, first compound 3.16 µM); 0.17% (second compound 0.316 µM, first compound 10 µM). Further, the viability, T/C by setting is: under setting [18], 98.7%; under setting [19], 81.1%; under setting [20], 62.9%; under setting [21], 56.2%; (second compound 1 µM, first compound 3.16 µM) 0.7%; (second compound 1 µM, first compound 10 µM) 0.23%.
For the molecule `CC(C)n1nc(-c2ccc3oc(N)nc3c2)c2c(N)ncnc21` + CCN1CCN(Cc2ccc(Nc3ncc(F)c(-c4cc(F)c5nc(C)n(C(C)C)c5c4)n3)nc2)CC1, the IC50 under setting [1] is 10.6 nM; the IC50 under setting [2] is 7.31 nM; the IC50 under setting [3] was 7.34 nM; the concentration for half-maximal inhibition (IC50) under setting [4] was determined as 14.5 nM; the IC50 under setting [5] came to 25.6 nM. For the same molecule, the viability, T/C (second compound 0.01 µM, first compound 0.000316 µM) is 90.9%; the viability, T/C (second compound 0.01 µM, first compound 0.001 µM) is 103%; the viability, T/C (second compound 0.01 µM, first compound 0.00316 µM) was 71.1%; the viability, T/C (second compound 0.01 µM, first compound 0.01 µM) is 55.6%; the viability, T/C under setting [6] is 21.6%; the viability, T/C under setting [7] was 11.9%. Further, the viability, T/C was 89.3% (second compound 0.0316 µM, first compound 0.000316 µM); 90.2% (second compound 0.0316 µM, first compound 0.001 µM); 73.3% (second compound 0.0316 µM, first compound 0.00316 µM); 40.8% (second compound 0.0316 µM, first compound 0.01 µM); 21% under setting [8]; 13.8% under setting [9]. The viability, T/C was 95.4% (second compound 0.1 µM, first compound 0.000316 µM); 94% (second compound 0.1 µM, first compound 0.001 µM); 69.2% under setting [22]; 44.6% under setting [23]; 19.3% under setting [10]; 16.8% under setting [11]. For the same molecule, the viability, T/C is, setting by setting: (second compound 0.316 µM, first compound 0.000316 µM) 116%; (second compound 0.316 µM, first compound 0.001 µM) 101%; under setting [24], 78.2%; under setting [25], 58.8%; under setting [14], 34.4%; under setting [15], 28.7%. Besides, the viability, T/C by setting is: (second compound 1 µM, first compound 0.000316 µM) 102%; (second compound 1 µM, first compound 0.001 µM) 83.1%; under setting [26], 80.6%; under setting [27], 55.3%; under setting [18], 47.8%; under setting [19], 41.6%.
Take `Cn1ncc(Cl)c1-c1cc(C(=O)NC(CN)Cc2cccc(F)c2)sc1Cl` (centres undefined): the viability, T/C was 89.2% and 85.5% (compound 0.0316 µM); 88.8% and 84.4% (compound 0.1 µM); 79.7% and 72.8% (compound 0.316 µM); 57.6% and 50.1% (compound 1 µM); 8.42% and 19.3% (compound 3.16 µM); 0.22% and 0.25% (compound 10 µM). Moreover, the IC50 (curve of compound) is 1170 nM and 998 nM.
Turning to `COc1c(OCCCN2CCOCC2)ccc2c3n(c(=NC(=O)c4cnc(N)nc4)nc12)CCN3` + CC(C)NCC(C(=O)N1CCN(c2ncnc3c2C(C)CC3O)CC1)c1ccc(Cl)cc1, the IC50 is 49.2 nM under setting [3]; 31.7 nM under setting [4]; 14.6 nM under setting [5]; below 3.16 nM (curve of first compound, second compound 3.16 µM); below 3.16 nM (curve of first compound, second compound 10 µM). Moreover, the viability, T/C under setting [22] was 86%; the viability, T/C under setting [23] is 80.2%; the viability, T/C under setting [10] is 58.3%; the viability, T/C under setting [11] was 37%; the viability, T/C under setting [12] was 9.3%; the viability, T/C under setting [13] is 11.8%. Further, the viability, T/C was 75.1% under setting [24]; 65.8% under setting [25]; 49.8% under setting [14]; 30.5% under setting [15]; 9.83% under setting [16]; 12.4% under setting [17]. In addition, the viability, T/C under setting [26] was 61.9%; the viability, T/C under setting [27] is 56.4%; the viability, T/C under setting [18] was 37.7%; the viability, T/C under setting [19] is 22%; the viability, T/C under setting [20] was 10.7%; the viability, T/C under setting [21] is 11.2%. Further, the viability, T/C was 45.9% (second compound 3.16 µM, first compound 0.00316 µM); 48.7% (second compound 3.16 µM, first compound 0.01 µM); 35.4% (second compound 3.16 µM, first compound 0.0316 µM); 32% (second compound 3.16 µM, first compound 0.1 µM); 9.39% (second compound 3.16 µM, first compound 0.316 µM); 10.6% (second compound 3.16 µM, first compound 1 µM). Besides, the viability, T/C was 33.8% (second compound 10 µM, first compound 0.00316 µM); 34.9% (second compound 10 µM, first compound 0.01 µM); 37.4% (second compound 10 µM, first compound 0.0316 µM); 21.7% (second compound 10 µM, first compound 0.1 µM); 6.28% (second compound 10 µM, first compound 0.316 µM); 5.07% (second compound 10 µM, first compound 1 µM).
